Data: PubChem BioAssay (NCI)
Several values for one entry are separate records, joined by “and”; a condition that tells them apart may be missing. Identical values can stand only once.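 Growth conditions: 96-well plates. Treatment: test compound, 48 hours, 5 concentrations. Analysis: linear interpolation between bracketing concentrations; unreached endpoints set to highest concentration. GI50: concentration for 50% inhibition of growth. TGI denotes the concentration required for complete inhibition of growth.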

Key:
Experiment in all cases: NCI tumour cell line growth inhibition, 48 h
UO-31 renal = test system: UO-31 renal
OVCAR-4 ovarian = test system: OVCAR-4 ovarian
BT-549 breast = test system: BT-549 breast
MDA-MB-435 = test system: MDA-MB-435
KM12 colon = test system: KM12 colon
OVCAR-8 ovarian = test system: OVCAR-8 ovarian
NCI-H23 lung = test system: NCI-H23 lung
HOP-62 NSCLC = test system: HOP-62 NSCLC
IGROV1 ovarian = test system: IGROV1 ovarian
SK-MEL-5 melanoma = test system: SK-MEL-5 melanoma

| SMILES | TGI (UO-31 renal) | TGI (OVCAR-4 ovarian) | TGI (BT-549 breast) | TGI (MDA-MB-435) | TGI (KM12 colon) | TGI (OVCAR-8 ovarian) | TGI (NCI-H23 lung) | TGI (HOP-62 NSCLC) | TGI (IGROV1 ovarian) | TGI (SK-MEL-5 melanoma) | GI50 (UO-31 renal) | GI50 (OVCAR-4 ovarian) | GI50 (BT-549 breast) | GI50 (MDA-MB-435) | GI50 (KM12 colon) | GI50 (OVCAR-8 ovarian) | GI50 (NCI-H23 lung) | GI50 (HOP-62 NSCLC) | GI50 (IGROV1 ovarian) | GI50 (SK-MEL-5 melanoma) |
| --- | --- | --- | --- | --- | --- | --- | --- | --- | --- | --- | --- | --- | --- | --- | --- | --- | --- | --- | --- | --- |
| COc1ccc(C2SC(N)=Nc3c2c(C)nn3C(=O)c2ccncc2)cc1 (configuration not stated) | > 100 µM | > 100 µM | > 100 µM | > 100 µM | > 100 µM | > 100 µM | > 100 µM | > 100 µM | > 100 µM | > 100 µM |  |  |  |  |  |  |  |  |  |  |
| C#Cc1cccc(NC(=O)Nc2ccccc2NC(=O)CCl)c1 | 21.6 µM | 41 µM | 65.5 µM | 31.5 µM | 26.5 µM | > 82.5 µM | 48.5 µM | > 82.5 µM | 28 µM | 26.9 µM | 11.1 µM | 16 µM | 20 µM | 15 µM | 14.2 µM | 27.1 µM | 16.9 µM | 25.9 µM | 13.6 µM | 14.2 µM |
| CCN(CC)CCn1c(=N)n(CC(O)c2ccc(Cl)c(Cl)c2)c2ccccc21 (configuration not stated) | 20.4 µM | 24.3 µM | 28 µM | 3.49 µM | 22.2 µM | 25.5 µM | 32.5 µM | 24.8 µM | 20.6 µM | 3.15 µM | 6.97 µM | 10.6 µM | 14.5 µM | 1.75 µM | 9.86 µM | 12.1 µM | 15 µM | 11.8 µM | 5.87 µM | 1.73 µM |
| CC1(CCCC2(C)CCNC2=O)OCCO1 (configuration not stated) | > 10 µM | > 10 µM | > 10 µM | > 10 µM | > 10 µM | > 10 µM | > 10 µM | > 10 µM | > 10 µM | > 10 µM |  |  |  |  |  |  |  |  |  |  |
| O=c1ccc2nc(-c3ccccc3)nn(-c3ccccc3)c-2c1 | 0.992 µM | 2.85 µM | 4.43 µM | 4.17 µM | 37.5 µM | 5.59 µM | 5.6 µM | 26.1 µM | 3.47 µM | 16.3 µM | 0.512 µM | 1.5 µM | 2.19 µM | 1.85 µM | 16.4 µM | 2.21 µM | 2.26 µM | 5.34 µM | 1.42 µM | 3.71 µM |
| COc1ccc(C(=O)/C=C/c2ccc(Cl)cc2)cc1S(N)(=O)=O | 5.76 µM | 12.6 µM | 7.33 µM | 15.6 µM | 3.78 µM | 10.2 µM | 7.06 µM | 8.62 µM | 8.34 µM | 18 µM | 1.89 µM | 3.46 µM | 2.29 µM | 4.34 µM | 1.73 µM | 3.55 µM | 2.54 µM | 2.51 µM | 2.67 µM | 5.69 µM |
| Cc1cc(O)c2c(c1)C[C@@H](O)C1=C2C(=O)c2c(O)ccc(OC3CC(O)C(OC4CC(OC5CCC(OC6CC(O)C(OC7CC(OC8CCC(O)C(C)O8)C(O)C(C)O7)C(C)O6)C(C)O5)C(O)C(C)O4)C(C)O3)c2C1=O (some centres not stated) |  |  | 0.49 µM | 0.182 µM and 0.344 µM and 0.376 µM |  |  |  |  | 0.344 µM and 2.47 µM |  | 1.39 µM and 1.3 µM | 0.326 µM |  | 0.198 µM and 0.204 µM | 1.78 µM and 1.11 µM | 0.364 µM | 0.343 µM and 0.8 µM | 1.97 µM and 2.76 µM | 1.14 µM | 1.33 µM and 1.2 µM |
| O=C(Nc1ccc(Cl)c(Cl)c1)Nc1ccc(Cl)c([N+](=O)[O-])c1 | 2.92 µM | 8.01 µM | 5.33 µM | 4.9 µM | 4.38 µM | 8.91 µM | 2.69 µM | 6.04 µM | 6.4 µM | 5.08 µM | 0.83 µM | 0.768 µM | 1.87 µM | 1.16 µM | 1.07 µM | 1.44 µM | 0.698 µM | 2.06 µM | 1.61 µM | 2 µM |
| CCOC(=O)c1cnc2ccc(Cl)cc2c1NCCCN(C)C | 57 µM | > 100 µM | > 100 µM | 43.5 µM | > 100 µM | 47 µM | > 100 µM | 94.8 µM | > 100 µM | 30.4 µM | 16.3 µM | 23.6 µM | 27.8 µM | 17.9 µM | 25.8 µM | 11.6 µM | 32.7 µM | 23 µM | 35 µM | 16 µM |
| NC(=O)C/C=C/CC(N)=O | > 100 µM | > 100 µM | > 100 µM | > 100 µM | > 100 µM | > 100 µM | > 100 µM | > 100 µM | > 100 µM | > 100 µM |  |  |  |  |  |  |  |  |  |  |
| COc1ccc([C@H]2c3cc(OC)c(OC)cc3C=C(C=O)C2CO)cc1OC (some centres not stated) | > 100 µM | > 100 µM | > 100 µM | 2.81 µM | 43.6 µM | > 100 µM | > 100 µM | > 100 µM | 8.89 µM | > 100 µM | 3.6 µM | 7.94 µM | > 100 µM | 0.914 µM | 2.9 µM | 6.9 µM | 7.15 µM | 4.79 µM | 2.08 µM | 3.51 µM |
| COc1ccc(C(=O)CC2(O)C(=O)Nc3c(Cl)ccc(Cl)c32)cc1 (configuration not stated) | > 100 µM | > 100 µM | > 70.9 µM | 0.649 µM | > 59.2 µM | 60.3 µM | > 60.6 µM | > 100 µM | > 100 µM | 18.8 µM | 6.65 µM | 11.9 µM | 2.43 µM | 0.225 µM | 0.732 µM | 3.62 µM | 4.61 µM | 3.42 µM | 4.95 µM | 1.01 µM |
| Cc1cc(Cl)n2c(nc3ccccc32)c1C#N | 1.68 µM | 3.43 µM | 2.28 µM | 1.6 µM | 1.44 µM | 11.9 µM | 2.55 µM | 3.45 µM | 1.82 µM | 3.45 µM | 0.333 µM | 0.971 µM | 0.473 µM | 0.327 µM | 0.341 µM | 0.597 µM | 0.422 µM | 0.572 µM | 0.414 µM | 0.573 µM |
| Cc1ccc(CCC(=O)Nc2ncc(Cc3cc(Cl)ccc3Cl)s2)o1 | 6.43 µM | > 20.4 µM | 2.72 µM | 0.0949 µM | > 36.3 µM | > 26.1 µM | > 37.7 µM | 15.1 µM | 20.8 µM | 5.96 µM | 0.594 µM | 0.767 µM | 0.29 µM | 0.0286 µM | 0.0966 µM | 0.432 µM | 0.471 µM | 0.38 µM | 0.334 µM | 0.0804 µM |
| CC(=O)NC1(C)CCC(C(C)(C)NC(C)=O)CC1 (configuration not stated) | > 100 µM | > 100 µM | > 100 µM | > 100 µM | > 100 µM | > 100 µM | > 100 µM | > 100 µM | > 100 µM | > 100 µM |  |  |  |  |  |  |  |  |  |  |
| [O-][n+]1onc2c3nn(-c4ccccc4)nc3ccc21 | > 100 µM | > 100 µM | > 100 µM | > 100 µM | 48.5 µM | > 100 µM | > 100 µM | > 100 µM | > 100 µM | > 100 µM |  |  |  |  |  |  |  |  |  |  |
| Cc1c2c(n3c(nc4ccccc43)c1C#N)SCC2 | > 10 µM | > 10 µM | > 10 µM | > 10 µM | > 10 µM | > 10 µM | > 10 µM | > 10 µM | > 10 µM | > 10 µM |  |  |  |  |  |  |  |  |  |  |
| O=C(Cn1ccnc1[N+](=O)[O-])NCCO | > 100 µM | > 100 µM | > 100 µM | > 100 µM | > 100 µM | > 100 µM | > 100 µM | > 100 µM | > 100 µM | > 100 µM |  |  |  |  |  |  |  |  |  |  |
| CC/C=C/[C@@H]1C=C[C@@H]2CCC[C@H]2[C@@H]1CC[C@H](O)[C@H](C)N | 4.91 µM | 4.88 µM | 8.03 µM | 3.27 µM | 3.07 µM | 5.54 µM | 3.98 µM | 2.8 µM | 2.92 µM | 3.16 µM | 1.77 µM | 1.83 µM | 2.49 µM | 1.7 µM | 1.7 µM | 2.3 µM | 1.78 µM | 1.47 µM | 1.5 µM | 1.69 µM |
| FC(F)(F)c1ccc2nc(-c3nc(-c4ccccc4)n4ccccc34)[nH]c2c1 | 18.6 µM | 3.71 µM | 63.4 µM | 31.6 µM | > 100 µM | 7.68 µM | 14.7 µM | 9.26 µM | 20.5 µM | 5.55 µM | 4.37 µM | 1.81 µM | 4.23 µM | 5.47 µM | 5.11 µM | 2.7 µM | 3.21 µM | 2.46 µM | 4.03 µM | 1.9 µM |
| O=C1CCCC1C(=O)Nc1ccc2ccccc2c1 (configuration not stated) | > 100 µM | > 100 µM | > 100 µM | > 100 µM | > 100 µM | > 100 µM | > 100 µM | > 100 µM | > 100 µM | > 100 µM |  |  |  |  |  |  |  |  |  |  |
| CC(C)(O)Cn1c(=O)c(Oc2ccc(F)cc2F)cc2cnc(NC3CCOCC3)nc21 | > 25 µM | > 25 µM | > 25 µM | > 25 µM | > 25 µM | > 25 µM | > 25 µM | > 25 µM | > 25 µM | > 25 µM | > 25 µM | > 25 µM | > 25 µM | > 25 µM | > 25 µM | > 25 µM | > 25 µM | > 25 µM | > 25 µM | > 25 µM |
